Results as given in patent US9150531B2, “Tricyclic lactones for treatment of cancer” (Glactone Pharma Development AB, priority 2010, dated 2015).
Read-outs that look alike come from different tables or passages of the source.

Experiments:
[1] = test system: STAT-3 transcription factor; test: STAT3 inhibition, luciferase reporter (4xM67 pTATA TK-Luc) in HeLa cells stimulated with γ-Interferon; type: cell-based; settings: γ-Interferon 8 h, luciferase activity, read-out: Anti STAT3 IC50
Protocol: HeLa cells (4×10^4/ml) were transiently transfected with a luciferase reporter plasmid (4×M67 pTATA TK-Luc) driven by artificial promoter containing 4 repeated M67 binding sites in tandem for the STAT-3 transcription factor. The transfections were performed for 24 h using Roti-Fect reagent (Carl Roth, Karlsruhe, Germany) according to the manufacturer's recommendations. After incubation with different concentrations of the extracts for 30 min the transfected cells were stimulated for 8 h with γ-Interferon. Then, the cells were lysed in 25 mM Tris-phosphate pH 7.8, 8 mM MgCl2, 1 mM DTT, 1% Triton X-100, and 7% glycerol. Luciferase activity was measured as described for 5.1 cells.
γ-Interferon induces an average of 5-6 fold induction of the luciferase activity compared to non stimulated cells and this represent the index of transactivation that is represented in our experiment as the maximum levels of γ-Interferon-induced STAT-3 activation (100%). Results below represent the IC50 for each compound in this assay. The IC50 means the concentration of each compound that reduces luciferase activity by 50% and it was calculated by GraphPad software.

LNCaP-IL6 cells = test: WST-1 proliferation assay, LNCaP-IL6 cells; type: cell-based, human
Protocol: (§1) The human prostate cancer cell lines DU145, LNCaP (from the American Type culture Collection, ATCC) and long-term interleukin-6 (IL-6) stimulated LNCaP cells (LNCaP-IL6 cells) (Hobisch, Ramoner et al. 2001) were used. The cells were cultured in RPMI 1640 medium supplemented with 10% FBS and 1% penicillin-streptomycin. All cells were incubated at 37° C. in a humidified atmosphere of […] and 5% CO2.
(§2) WST-1 proliferation assay was performed to study the effects of the test items on the proliferation and viability of cultured prostate cancer cells. LNCaP and DU145 cells were cultured in 96-well plates at the density of 2 000 cells/well in 200 μl of medium. Cells were allowed to set for 24 h. The cells were treated with 0, 2.5, 5 or 10 μM of the specific substance for 24 h and 48 h. Samples were made in triplicate. 20 μl WST-1 solution (Roche Applied Science, Mannheim, Germany) was added per well and incubated at 37° C. for 4 h. The absorbance of each well was measured using a scanning multiwell spectrophotometer, ELISA reader at a wavelength of 450 nm and reference wavelength of 690 nm. The results are presented as percent of untreated control cells or the absorbance value.

DU145 = test: WST-1 proliferation assay, DU145 cells (Example 16); type: cell-based, human
Protocol: as §1, §2

NF-κB = test: NF-κB-dependent transcriptional activity, Jurkat-LTR-Luc (Jurkat 5.1) cells stimulated with TNF-α; type: cell-based; settings: TNF-α (2 ng/ml) 6 h, luciferase activity, read-out: IC50 anti-NF-κB
Protocol: The potency of (−)-Galiellalactone and compound examples of the invention in inhibiting NF-κB-dependent transcriptional activity was assayed in a Jurkat-LTR-Luc cell line. This cellular model have been widely used for the screening of natural and synthetic NF-κB inhibitors (Appendino et al, J Nat Prod. 2007, 70(4), 608-612; J Nat Prod. 2006, 69(7), 1101-1104; Marquez et al, Antiviral Res. 2005, 66(2-3), 137-145) Jurkat 5.1 cells were preincubated for 30 min with increasing concentrations of the compounds dissolved in DMSO followed by stimulation with TNF-α (2 ng/ml) for 6 h. Cells were washed twice in PBS and lysed in 25 mM Tris-phosphate, pH 7.8, 8 mM MgCl2, 1 mM DTT, 1% Triton X-100, and 7% glycerol for 15 min at room temperature. Then the lysates were spun down and the supernatant was used to measure luciferase activity using an Autolumat LB 9510 (Berthold Technologies). Protein concentration was determined by the Bradford method (Bio-Rad, Richmond, Calif.). Results below represent the 1050 for each compound in this assay.

IL-6/STAT3 signaling = settings: background statement; cited from earlier work

| IC50 ([1]; Homo sapiens) [µM] | IC50 (NF-κB; Homo sapiens) [µM] | IC50 [1] [µM] | IC50 (NF-κB) [µM] | SMILES | % Proliferation (vs control) 24 h LNCaP-IL6 (LNCaP-IL6 cells; 2.5 uM) [%] | % Proliferation (vs control) 48 h LNCaP-IL6 (LNCaP-IL6 cells; 2.5 uM) [%] | % Proliferation (vs control) 24 h LNCaP-IL6 (LNCaP-IL6 cells; 5 uM) [%] | % Proliferation (vs control) 48 h LNCaP-IL6 (LNCaP-IL6 cells; 5 uM) [%] | % Proliferation (vs control) 24 h LNCaP-IL6 (LNCaP-IL6 cells; 10 uM) [%] | % Proliferation (vs control) 48 h LNCaP-IL6 (LNCaP-IL6 cells; 10 uM) [%] | % Proliferation (vs control) 24 h DU145 (DU145; 2.5 uM) [%] | % Proliferation (vs control) 48 h Du145 (DU145; 2.5 uM) [%] | % Proliferation (vs control) 24 h DU145 (DU145; 5 uM) [%] | % Proliferation (vs control) 48 h Du145 (DU145; 5 uM) [%] | % Proliferation (vs control) 24 h DU145 (DU145; 10 uM) [%] | % Proliferation (vs control) 48 h Du145 (DU145; 10 uM) [%] | inhibition of IL-6/STAT3 signaling (IL-6/STAT3 signaling) |
| --- | --- | --- | --- | --- | --- | --- | --- | --- | --- | --- | --- | --- | --- | --- | --- | --- | --- |
| 2.1 | 2.66 | – | – | C[C@H]1C=C2C(=O)OC3C(C)(C)C[C@H](C1)[C@]23O (stereo partly drawn) [Example 1, 2a^1-hydroxy-4,7,7-trimethyl-4,5,5a,6,7,7a-hexahydroindeno[1,7-bc]furan-2(2a^1H)-one] | 65.41 | 52.42 | 68.95 | 26.28 | 69.23 | 16.19 | 80.19 | 67.45 | 68.82 | 35.62 | 54.07 | 22.77 | – |
| 2.87 | 1.26 | – | – | C[C@H]1C=C2C(=O)OC3[C@H](Cc4ccccc4)C[C@H](C1)[C@]23O (stereo partly drawn) [Example 3, 7-benzyl-2a^1-hydroxy-4-methyl-4,5,5a,6,7,7a-hexahydroindeno[1,7-bc]furan-2(2a^1H)-one] | 57.10 | 27.82 | 59.00 | 18.15 | 53.01 | 12.49 | 56.33 | 31.10 | 52.11 | 18.38 | 44.48 | 14.45 | – |
| 1.18 | 0.33 | – | – | C[C@H]1C=C2C(=O)OC3[C@H](c4ccccc4)C[C@H](C1)[C@]23O (stereo partly drawn) [Example 2, 2a^1-hydroxy-4-methyl-7-phenyl-4,5,5a,6,7,7a-hexahydroindeno[1,7-bc]furan-2(2a^1H)-one] | 81.79 | 79.56 | 81.21 | 57.14 | 70.45 | 20.19 | 90.64 | 68.04 | 68.55 | 34.07 | 63.86 | 30.26 | – |
| – | – | 7.7 | 5.5 | C[C@@H]1C=C2C(=O)O[C@@H]3CC[C@H](C1)C23O (single isomer, unassigned; (-)) [(−)-Galiellalactone, reference compound] | 90.91 | 96.78 | 68.76 | 68.76 | 77.11 | 23.22 | 84.24 | 76.36 | 63.19 | 38.51 | 48.44 | 22.24 | submicromolar |
